Read-outs that look alike come from different tables or passages of the source.
How the values were obtained:
[1] = Titration of hydrogen peroxide concentration, initially and 24 hours later (stability of the active oxidant); format: physicochemical; settings: titrated initially and 24 hours later
Experimental: The dry-to-touch powder compositions generated in Example 2 were further analyzed for stability of the active oxidant. The compositions were titrated initially and 24 hours later, giving nearly the same resulting amount of hydrogen peroxide concentration in the untreated liquid composition (35%) and the dry-to-touch powder composition (31%).

[2] = cited from earlier work

Row | Compound | hydrogen peroxide concentration [1] [%] | PEI protonated ([2]; pH 2) | PEI protonated ([2]; pH 4) | PEI protonated ([2]; pH 5) | PEI protonated ([2]; pH 8) | PEI protonated ([2]; pH 10)
1 | OO [liquid hydrogen peroxide (35%), hydrogen peroxide] | 35 |  |  |  |  | 
2 | polyethyleneimine [PEI] |  | about 73% | about 50% | about 33% | about 25% | about 4%
